Assay results as given in publication PMC10917667, “Targeted protein degradation via intramolecular bivalent glues” (Nature, 2024).

Target: T1, BRD4 (BRD4^Tandem) (Homo sapiens, UniProt O60885)
T1 construct: BRD4^Tandem (residues 43–459), BD1 and BD2 with native linker; with DCAF16–DDB1(ΔBPB)–DDA1
Assay: cryo-EM ternary structure ([…] Å); alphaLISA displacement ([…] with DCAF16, […] alone); ITC; TR-FRET
Type: binding

IC50: 12.8 nM
Structure (SMILES): COC(=O)C[C@@H]1N=C(c2ccc(-c3ccc(C(=O)NCc4ccc(S(=O)(=O)Nc5ccc(C)c6c(C#N)c[nH]c56)cc4)cc3)cc2)c2c(sc(C)c2C)-n2c(C)nnc21 [IBG1]
